# From ChEMBL document CHEMBL3739410, “The natural product brartemicin is a high affinity ligand for the carbohydrate-recognition domain of the macrophage receptor mincle” (Medchemcomm, 2015)
# Species: Bos taurus
# Assay: Displacement of radioiodinated Man31-bovine serum albumin from biotin-tagged bovine mincle CRD after 2 hr by scintillation counting analysis relative to alpha,alpha-trehalose
smiles,measurement,value
Cc1cc(O)cc(O)c1C(=O)OC[C@H]1O[C@H](O[C@H]2O[C@H](COC(=O)c3c(C)cc(O)cc3O)[C@@H](O)[C@H](O)[C@H]2O)[C@H](O)[C@@H](O)[C@@H]1O,Ratio Ki,290
